Results from patent US20230082968A1, “EXOGENOUS NITRIC OXIDE FOR IMPROVED SUSCEPTIBILITY AND LOWERED ANTIBIOTIC RESISTANCE IN RESISTANT RESPIRATORY BACTERIA” (The University of North Carolina at Chapel Hill, priority 2020, published 2023).
In brackets after ≈: the same amount, converted by molar mass. Entries after “also recorded” stand apart in the source; their conditions may differ.

Legend:
[1] = tested on: P. aeruginosa strain K (PAK); test: Checkerboard assay of antibiotic combinations with COS/NO; type: cell-based, Pseudomonas aeruginosa; conditions: antibiotic in combination with COS/NO, 24 h
Method: Frozen stocks of bacteria were reconstituted in TSB (3 mL) and cultured overnight. The overnight cultures of bacteria (3 mL) were inoculated into fresh TSB (30 mL) and grown to 10^8 CFU/mL. […] Inhibition was assessed with the resazurin assay and the minimum inhibitory concentration (MIC) was defined as the lowest concentration of antibacterial agent required to prevent the reduction of resazurin (i.e., color change from blue to pink).
Mol. Pharm. 7, 2289-2296 (2010)]. Briefly, bacteria at a final concentration of 10^6 CFU/mL were incubated with an array of antimicrobial combinations in TSB for 24 h at 37° C. The highest concentration for each antimicrobial tested was 2 × MIC. […] The fractional […] concentration index (ΣFIC) was calculated using Equation 1, reported by Elion et al. [Elion, G. B., Singer, S. & Hitchings, G. H. Antagonists of Nucleic Acid Derivatives: VIII. Synergism in combinations of biochemically related antimetabolites. […] Checkerboard assays were conducted in at least duplicate for each bacterial strain and for each drug combination.
Characterization of the combinations was performed using the following criteria based on ΣFIC values: < 0.25 is highly synergistic; ≤ 0.5 is synergistic; ≤ 1 is additive; ≤ 4 is indifferent; > 4 is antagonistic.

PA 229 = test: 24 h combination time kill assay; type: cell-based, P. aeruginosa; conditions: PA 229, COS/NO and tobramycin, 24 h time kill
Method: (§1) Time-kill assays were performed over 24 h in order to quantitatively probe the effect of each antibiotic-NO combination as a function of time [Belley, A. et al. Assessment by time-kill methodology of the synergistic effects of oritavancin in combination with other antimicrobial agents against Staphylococcus aureus. Antimicrob. Agents Chemother. 52, 3820-3822 (2008)]. […] Aliquots were sampled at 0, 3, 6, and 24 h, serially diluted, and logarithmically plated on TSA plates using an Eddy Jet spiral plater (IUL; Farmingdale, NY). Bacterial viability was assessed by counting the number of colonies formed with a Flash & Go colony counter (IUL; Farmingdale, NY).

PA 230 = test: 24 h combination time kill assay; type: cell-based, P. aeruginosa; conditions: PA 230 (tobramycin-resistant), COS/NO and tobramycin, 24 h time kill
Method: as §1

PA 237 = test: 24 h combination time kill assay; type: cell-based, P. aeruginosa; conditions: PA 237, COS/NO and tobramycin, 24 h time kill
Method: as §1

PA 239 = test: 24 h combination time kill assay; type: cell-based, P. aeruginosa; conditions: PA 239 (tobramycin-resistant), COS/NO and tobramycin, 24 h time kill
Method: as §1

PAK [2] = test: Nitric oxide pretreatment with planktonic bacteria; type: cell-based, Pseudomonas aeruginosa; conditions: antibiotic 2 µg/mL, NO-pretreatment 25% MIC 4 h
Method: (§2) After exposure, wells were serially diluted in sterile MilliQ water and spiral plated on TSA. Viability was assessed by colony counting.

ATCC S.aureus = test: Nitric oxide pretreatment with planktonic bacteria; type: cell-based, Staphylococcus aureus
Method: as §2

ATCC BCC = test: Nitric oxide pretreatment with planktonic bacteria; type: cell-based, Burkholderia cepacia complex
Method: as §2

PAK biofilm = test: Biofilm pretreatment with nitric oxide; type: cell-based, Pseudomonas aeruginosa
Method: (§3) Bacteria were cultured to a concentration of 10^8 CFU/mL in TSB and diluted to 10^6 CFU/mL in 200 µL TSB in a 96 well plate. Plates were incubated with shaking for 3 days until a non-surface attached viscous aggregate formed that was easily separated from growth medium. Biofilms (100 µL) were removed, gently injected into PBS (200 µL) to remove loosely adhered planktonic cells, and added to a sterile 96 well plate. To the wells, PBS or test agent dissolved in PBS (100 µL) was added and incubated with shaking for 24 h. The biofilm (100 µL) was removed from the well plate, added to 900 µL sterile MilliQ water, and disrupted with pipetting and vortexing. Disrupted biofilms were serially diluted and spiral plated on TSA. Viability was assessed with colony counting. The minimum biofilm eradication concentration (MBEC) was defined as the lowest concentration of test agent required to reduce viability by 5-log (i.e., 10^8 to 10^3 CFU/mL).
(§4) The biofilm was then removed from its 96 well plate, added to a new 96 well plate containing tobramycin dissolved in PBS (100 µL), and incubated for 20 h. The biofilm was disrupted in 900 µL sterile MilliQ water with pipetting and vortexing, serially diluted, and spiral plated on TSA. Viability was assessed with colony counting.

AR 229 biofilm = test: Biofilm pretreatment with nitric oxide; type: cell-based, P. aeruginosa; conditions: tobramycin 2 µg/mL, NO-pretreatment 4 h
Method: as §3, §4

AR 230 biofilm = test: Biofilm pretreatment with nitric oxide; type: cell-based, P. aeruginosa; conditions: tobramycin 64 µg/mL, NO-pretreatment 4 h
Method: as §3, §4

AR 237 biofilm = test: Biofilm pretreatment with nitric oxide; type: cell-based, P. aeruginosa; conditions: tobramycin 1 µg/mL, NO-pretreatment 4 h
Method: as §3, §4

AR 239 biofilm = test: Biofilm pretreatment with nitric oxide; type: cell-based, P. aeruginosa; conditions: tobramycin 5000 µg/mL, NO-pretreatment 4 h
Method: as §3, §4

P. aeruginosa biofilms = test: Biofilm pretreatment with nitric oxide, all tested biofilms; type: cell-based; conditions: all tested P. aeruginosa biofilms incl. tobramycin-resistant strains, COS/NO at 25% MBEC for 4 h
Method: as §3, §4

PAK [3] = test: Serial passaging resistance assay; type: cell-based, Pseudomonas aeruginosa
Method: Bacteria at a final concentration of 10^6 CFU/mL in TSB were incubated with serial dilutions of COS/NO and/or tobramycin for 24 h. Growth was assessed by measuring absorbance at 600 nm. The wells that had the highest concentration of test agent and an OD600 corresponding to more than 10^8 CFU/mL were diluted to 10^6 cfu/mL in TSB and incubated with fresh solutions of COS/NO or tobramycin for 24 h. A single passage was defined as one exposure, incubation, and subsequent dilution. Bacteria were passaged for up to 70 days.

[4] = tobramycin 16 µg/mL, NO-pretreatment 4 h

NC[C@H]1O[C@H](O[C@H]2[C@H](O)[C@@H](O[C@H]3O[C@H](CO)[C@@H](O)[C@H](N)[C@H]3O)[C@H](N)C[C@@H]2N)[C@H](N)C[C@@H]1O [Tobramycin]
Classification (ΣFIC) [1]: Additive | ΣFIC (median fractional inhibitory concentration index) [1]: 0.625 | interaction of tobramycin-NO combination (PA 229): synergistically | interaction of tobramycin-NO combination (PA 230): indifferent | interaction of tobramycin-NO combination (PA 237): synergistically | interaction of tobramycin-NO combination (PA 239): indifferent | Classification (PAK [2]): Synergistic | Log Difference in bacteria viability with vs without NO-pretreatment (PAK [2]): 3.00 log | tobramycin-susceptibility with the addition of NO (ATCC S.aureus; ATCC S. aureus, NO-pretreatment): significant improvement | Log Difference in bacteria viability with vs without NO-pretreatment (ATCC S.aureus; ATCC S.aureus, antibiotic […], NO-pretreatment 25% MIC 4 h): 4.88 log | Log Difference in bacteria viability with vs without NO-pretreatment (ATCC BCC; ATCC BCC, antibiotic […], NO-pretreatment 25% MIC 4 h): 5.23 log | tobramycin-susceptibility with the addition of NO (ATCC BCC; B. cepacia complex, NO-pretreatment): significant improvement | changes in tobramycin-susceptibility of biofilm (PAK biofilm; NO-pretreatment lasting less than 4 h): Minimal changes | Classification (PAK biofilm; [4]): Synergistic | Log Difference in biofilm viability with vs without NO-pretreatment (PAK biofilm; [4]): 4.71 log | Classification (AR 229 biofilm): Synergistic | Log Difference in biofilm viability with vs without NO-pretreatment (AR 229 biofilm): 4.39 log | Classification (AR 230 biofilm): Synergistic | Log Difference in biofilm viability with vs without NO-pretreatment (AR 230 biofilm): 5.15 log | Classification (AR 237 biofilm): Synergistic | Log Difference in biofilm viability with vs without NO-pretreatment (AR 237 biofilm): 4.85 log | Classification (AR 239 biofilm): Synergistic | Log Difference in biofilm viability with vs without NO-pretreatment (AR 239 biofilm): 4.90 log | tobramycin susceptibility of biofilms after NO-pretreatment (P. aeruginosa biofilms): significantly more susceptible; also recorded: improved | development of tobramycin-resistance (PAK [3]; P. aeruginosa, concomitant delivery with COS/NO at 25% of its MIC): slowing or prevention | change of tobramycin MIC on parallel exposures (PAK [3]; P. aeruginosa, tobramycin alone, serial passages): increases | MICn (PAK [3]; PAK, after n = 10 passages): 16 µg/mL | MIC (PAK [3]; Pseudomonas aeruginosa, read-out: MIC0): 2 µg/mL (≈ 4.28 µM)
